Patent publication US11578087B2, “Oxaborole esters and uses thereof” (priority 2016, dated 2023)

Assays:
[1] = system: IL3000 T. congolense (drug sensitive) strain; test: In vitro Alamar Blue 72 h drug sensitivity assay for T. congolense; assay type: cell-based, Trypanosoma congolense; settings: Trypanosoma congolense, 72 h, bloodstream form, 69 h + 3 h Resazurin, 34° C., read-out: IC50: I Org. Growth T. congolense 3 d
In short: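 IC50 values derive from 11-point curves averaged over at least three independent runs, with fluorescence read at 536 nm excitation and 588 nm emission. Resazurin was added for a final 3 h after 69 h compound exposure of bloodstream forms (HMI medium, 20% bovine serum, 34° C, 5% CO2).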

[2] = system: T. cruzi amastigote (Td Tomato-modified) in Vero cells; test: In vitro IC50 measurement of T. cruzi amastigote killing using Td Tomato-modified T. cruzi; assay type: cell-based; settings: Trypanosoma cruzi, 72 h, fluorescence, read-out: IC50: I Org. amastigote Growth T. cruzi 3 d
In short: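 IC50/IC90 came from nonlinear regression of Day 3 minus Day 0 fluorescence (544/612 nm), correcting for input parasites. Final compound concentrations spanned 5 nM–5 uM on Td Tomato T. cruzi-infected Vero cells, 72 h at 37 °C.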

Compound | IC50 [1] | IC50 [2]
Cc1c(C(=O)N[C@H](C(=O)OCc2cccc(Cl)c2)C(C)C)ccc2c1B(O)OC2 [Example 6-043, 3-Chlorobenzyl (1-hydroxy-7-methyl-1,3-dihydrobenzo[c][1,2]oxaborole-6-carbonyl)-L-valinate] | < 0.0005 µM | ≤ 0.02 µM
Cc1c(C(=O)N[C@H](C(=O)OCc2ccc(F)cc2)[C@@H](C)O)ccc2c1B(O)OC2 [Example 6-074, 4-Fluorobenzyl (1-hydroxy-7-methyl-1,3-dihydrobenzo[c][1,2]oxaborole-6-carbonyl)-L-threoninate] | < 0.0005 µM | 0.021 to 0.999 µM
Cc1c(C(=O)N[C@H](C(=O)OCc2cccc(N3CCN(C)CC3)n2)C(C)C)ccc2c1B(O)OC2 [Example 6-201, (6-(4-methylpiperazin-1-yl)pyridin-2-yl)methyl (1-hydroxy-7-methyl-1,3-dihydrobenzo[c][1,2]oxaborole-6-carbonyl)-L-valinate] | < 0.0005 µM | 0.021 to 0.999 µM
Cc1c(C(=O)N[C@H](C(=O)OCc2cccc(CN(C)C)c2)C(C)C)ccc2c1B(O)OC2 [Example 6-081, 3-((Dimethylamino)methyl)benzyl (1-hydroxy-7-methyl-1,3-dihydrobenzo[c][1,2]oxaborole-6-carbonyl)-L-valinate] | < 0.0005 µM | 0.021 to 0.999 µM
Cc1c(C(=O)N[C@H](C(=O)OCC(F)(F)C(F)(F)F)C(C)C)ccc2c1B(O)OC2 [Example 6-153, 2,2,3,3,3-Pentafluoropropyl (1-hydroxy-7-methyl-1,3-dihydrobenzo[c][1,2]oxaborole-6-carbonyl)-L-valinate] | < 0.0005 µM | ≤ 0.02 µM
Cc1c(C(=O)N[C@H](C(=O)OCc2ccc(CN3CCOCC3)cc2)C(C)C)ccc2c1B(O)OC2 [Example 6-130, 4-(Morpholinomethyl)benzyl (1-hydroxy-7-methyl-1,3-dihydrobenzo[c][1,2]oxaborole-6-carbonyl)-L-valinate] | < 0.0005 µM | 0.021 to 0.999 µM
Cc1c(C(=O)N[C@H](C(=O)OCc2ccc([S+](C)[O-])cc2)C(C)C)ccc2c1B(O)OC2 (stereo partly drawn) [Example 6-090, 4-(Methylsulfinyl)benzyl (1-hydroxy-7-methyl-1,3-dihydrobenzo[c][1,2]oxaborole-6-carbonyl)-L-valinate] | 0.00051 to 0.00999 µM | 0.021 to 0.999 µM
Cc1c(C(=O)N[C@H](C(=O)OC[C@H]2CCCO2)C(C)C)ccc2c1B(O)OC2 [Example 6-215, ((R)-tetrahydrofuran-2-yl)methyl (1-hydroxy-7-methyl-1,3-dihydrobenzo[c][1,2]oxaborole-6-carbonyl)-L-valinate] | < 0.0005 µM | ≤ 0.02 µM
Cc1c(C(=O)N[C@H](C(=O)OCc2ccc(C(F)(F)F)cc2)C(C)C)ccc2c1B(O)OC2 [Example 6-041, 4-Trifluoromethylbenzyl (1-hydroxy-7-methyl-1,3-dihydrobenzo[c][1,2]oxaborole-6-carbonyl)-L-valinate] | < 0.0005 µM | ≤ 0.02 µM
Cc1c(C(=O)N[C@H](C(=O)OCc2ccc(CN3CCCC3)cc2)C(C)C)ccc2c1B(O)OC2 [Example 6-131, 4-(Pyrrolidin-1-ylmethyl)benzyl (1-hydroxy-7-methyl-1,3-dihydrobenzo[c][1,2]oxaborole-6-carbonyl)-L-valinate] | < 0.0005 µM | 0.021 to 0.999 µM
Cc1c(C(=O)N[C@H](C(=O)OCC2(O)CCCC2)C(C)C)ccc2c1B(O)OC2 [Example 6-220, (1-hydroxycyclopentyl)methyl (1-hydroxy-7-methyl-1,3-dihydrobenzo[c][1,2]oxaborole-6-carbonyl)-L-valinate] | 0.00051 to 0.00999 µM | ≤ 0.02 µM
Cc1c(C(=O)N[C@H](C(=O)OCc2ccc(OCCCN3CCCC3)cc2)C(C)C)ccc2c1B(O)OC2 [Example 6-249, 4-(3-(Pyrrolidin-1-yl)propoxy)benzyl(1-hydroxy-7-methyl-1,3-dihydrobenzo[c][1,2]oxaborole-6-carbonyl)-L-valinate] | 0.00051 to 0.00999 µM | 0.021 to 0.999 µM
Cc1c(C(=O)N[C@H](C(=O)OCc2nccs2)C(C)C)ccc2c1B(O)OC2 [Example 6-124, Thiazol-2-ylmethyl (1-hydroxy-7-methyl-1,3-dihydrobenzo[c][1,2]oxaborole-6-carbonyl)-L-valinate] | < 0.0005 µM | 0.021 to 0.999 µM
Cc1c(C(=O)N[C@H](C(=O)OCCN2CCCC2)C(C)C)ccc2c1B(O)OC2 [Example 6-095, 2-(Pyrrolidin-1-yl)ethyl (1-hydroxy-7-methyl-1,3-dihydrobenzo[c][1,2]oxaborole-6-carbonyl)-L-valinate] | 0.00051 to 0.00999 µM | ≥ 1 µM
Cc1c(C(=O)N[C@H](C(=O)OCCCN2CCOCC2)C(C)C)ccc2c1B(O)OC2 [Example 6-208, 3-morpholinopropyl (1-hydroxy-7-methyl-1,3-dihydrobenzo[c][1,2]oxaborole-6-carbonyl)-L-valinate] | 0.00051 to 0.00999 µM | 0.021 to 0.999 µM
Cc1c(C(=O)N[C@H](C(=O)OCc2ccc(F)cn2)C(C)C)ccc2c1B(O)OC2 [Example 6-067, (5-Fluoropyridin-2-yl)methyl (1-hydroxy-7-methyl-1,3-dihydrobenzo[c][1,2]oxaborole-6-carbonyl)-L-valinate] | < 0.0005 µM | ≤ 0.02 µM
Cc1c(C(=O)N[C@H](C(=O)OCC2(O)CCCCC2)C(C)C)ccc2c1B(O)OC2 [Example 6-229, (1-hydroxycyclohexyl)methyl (1-hydroxy-7-methyl-1,3-dihydrobenzo[c][1,2]oxaborole-6-carbonyl)-L-valinate] | < 0.0005 µM | ≤ 0.02 µM
Cc1c(C(=O)N[C@H](C(=O)OCc2ccc(S(C)(=O)=O)c(CN(C)C)c2)C(C)C)ccc2c1B(O)OC2 [Example 6-110, 3-((Dimethylamino)methyl)-4-(methylsulfonyl)benzyl (1-hydroxy-7-methyl-1,3-dihydrobenzo[c][1,2]oxaborole-6-carbonyl)-L-valinate] | 0.00051 to 0.00999 µM | 0.021 to 0.999 µM
Cc1c(C(=O)N[C@H](C(=O)OCc2ccc(OCCN3CCOCC3)cc2)C(C)C)ccc2c1B(O)OC2 [Example 6-247, 4-(2-Morpholinoethoxy)benzyl(1-hydroxy-7-methyl-1,3-dihydrobenzo[c][1,2]oxaborole-6-carbonyl)-L-valinate] | 0.00051 to 0.00999 µM | ≤ 0.02 µM
CCS(=O)(=O)c1ccc(COC(=O)[C@@H](NC(=O)c2ccc3c(c2C)B(O)OC3)C(C)C)cc1 [Example 6-093, 4-(Ethylsulfonyl)benzyl (1-hydroxy-7-methyl-1,3-dihydrobenzo[c][1,2]oxaborole-6-carbonyl)-L-valinate] | 0.00051 to 0.00999 µM | 0.021 to 0.999 µM
Cc1c(C(=O)N[C@H](C(=O)OC(C(F)(F)F)C(F)(F)F)C(C)C)ccc2c1B(O)OC2 [Example 6-156, 1,1,1,3,3,3-Hexafluoropropan-2-yl (1-hydroxy-7-methyl-1,3-dihydrobenzo[c][1,2]oxaborole-6-carbonyl)-L-valinate] | 0.01 to 5 µM | ≥ 1 µM
Cc1c(C(=O)N[C@H](C(=O)OC2CCNCC2)C(C)C)ccc2c1B(O)OC2 [Example 6-146, Piperidin-4-yl (1-hydroxy-7-methyl-1,3-dihydrobenzo[c][1,2]oxaborole-6-carbonyl)-L-valinate] | 0.01 to 5 µM | ≥ 1 µM
Cc1c(C(=O)N[C@H](C(=O)OCCN2CC(C)OC(C)C2)C(C)C)ccc2c1B(O)OC2 (stereo partly drawn) [Example 6-206, 2-(2,6-dimethylmorpholino)ethyl (1-hydroxy-7-methyl-1,3-dihydrobenzo[c][1,2]oxaborole-6-carbonyl)-L-valinate] | < 0.0005 µM | 0.021 to 0.999 µM
